From paper PMC6325233, “A Novel Actin Binding Drug with In Vivo Efficacy” (Antimicrobial Agents and Chemotherapy, 2018)
“Also recorded” adds a separate entry of the source. Read-outs that look alike come from different tables or passages of the source.

Key:
[1] = tested on: Candida parapsilosis 2006; assay: MIC susceptibility testing (caspofungin-resistant strain); type: cell-based; design: key to MIC, 50% inhibition: -: indicates absence of isolates with 50% inhibition endpoint; settings: CLSI M27-A3
Experimental: (§1) Occidiofungin was purified from a liquid culture of Burkholderia contaminans MS14 as previously described ([21]). MIC susceptibility testing was performed according to the CLSI M27-A3 and M38-A2 standards for the susceptibility testing of yeasts and filamentous fungi, respectively. S. cerevisiae deletion mutants were obtained from the commercially available BY4741 deletion library (Thermo Scientific).

[2] = tested on: Cryptococcus neoformans 19526; assay: as above; type: cell-based; design: key to MIC, 50% inhibition: -: indicates absence of isolates with 50% inhibition endpoint; settings: CLSI M27-A3; 72 hours
Experimental: as §1

F-actin = assay: Actin polymerization and depolymerization assays; type: biochemical; settings: 20 μg occidiofungin in 20 μL of 1.5% β-cyclodextrin in PBS, pyrene actin
[3] = tested on: Schizosaccharomyces pombe; assay: Intracellular localization and competition, fluorescence microscopy; type: cell-based; settings: pretreatment with 1× MIC native occidiofungin
Experimental: S. pombe and S. cerevisiae cells (OD600 of 0.6 to 0.8) were incubated with 1× MIC of alkyne-OF at 30°C, with samples removed at 10, 30, and 60 min postincubation. The cells were washed in PBS and fixed with 3.7% formaldehyde. The cells were permeabilized by adding 0.5% Triton X-100. The cells were washed with PBS before the Click reaction with azide-derivatized Alexa Fluor 488 (Click-iT EdU imaging kit; Thermo Fisher Scientific). The cells were visualized with an Olympus FV1000 confocal microscope. A competition assay was carried out by pretreating cells with 1× MIC of the native occidiofungin followed by treatment with alkyne-OF. […] A 6.6 µM concentration of tetramethyl rhodamine isothiocyanate (TRITC)-tagged phalloidin was added to formaldehyde-fixed cells (permeabilized with 0.2% Triton X-100) for 30 min at room temperature. The cells were washed in PBS, added to a concanavalin A-treated glass slides, and overlaid with Vectashield plus DAPI. Images were viewed using a Nikon 50i fluorescence microscope with a 100× oil immersion objective and Texas Red and DAPI filter sets. Random images were captured using a Retiga EXi black and white charge-coupled-device (CCD) camera and Image Q software. All images were captured using the same exposure settings, with the image contrast altered postcapture using CorelDraw.

C. albicans (ATCC 66027) = assay: DNA (nuclear) segregation assay, DAPI; type: cell-based; settings: for percentage of cells in category, column 2: untreated 10.3 ± 3.8; for percentage of cells in category, column 4: untreated 1.0 ± 0.4; for percentage of cells in category, column 3: untreated 26.6 ± 5.6
Experimental: (§2) The hyphal induction assay was performed as previously reported with minor modifications ([58]). Candida albicans strain ATCC 66027 was grown in yeast extract-peptone-dextrose (YPD) medium at 30°C for 48 h to reach saturation with an OD600 of 17 to 19. Cells were diluted into fresh Spider medium (1% nutrient broth, 1% mannitol, 0.2% K2HPO4) to obtain an OD600 of 0.05 (∼0.5 × 10^6 to 1 × 10^6 cells/ml) and incubated at 37°C with shaking to induce hyphal formation. Immediately prior to the 37°C incubation, occidiofungin (1 µg/ml; 0.5× MIC) or an equal volume of DMSO was added to the cultures. Aliquots were removed at 0-, 1-, 2-, 4-, and 6-h time points and fixed in 3.7% formaldehyde for later analysis of cell morphology by light microscopy. More than 200 cells were examined for each time point, and cells were scored as having either a yeast or filamentous form, with cells showing any outgrowth considered filamentous. DNA segregation assays were performed using a mid-log culture of S. cerevisiae (BY4743, diploid) and C. albicans (ATCC 66027). The cultures were diluted in fresh YPD medium to obtain OD600s of 0.095 (∼1 × 10^6 to 1.5 × 10^6 cells/ml) and 0.05 (0.5 × 10^6 to 0.8 × 10^6 cells/ml), respectively. A blank vehicle control (DMSO) or occidiofungin (1 µg/ml; 0.5× MIC) was added, and the cultures were placed at 30°C with shaking. Samples were removed at 0.5, 1, and 2 h, and the cells fixed by adding formaldehyde (3.7%). The cells were washed in phosphate-buffered saline (PBS) and permeabilized by adding an equivalent volume of PBS containing 0.2% Triton X-100 for 30 min at room temperature. The cells were washed thrice in PBS, added to concanavalin A-treated glass slides, and overlaid with Vectashield plus DAPI (4′,6-diamidino-2-phenylindole). Images were viewed using a Nikon 50i fluorescence microscope with a 100× oil immersion objective and DAPI filter. Cells were scored on the basis of bud morphology and DNA location. One-way analyses of variance (ANOVAs) with post hoc Tukey’s honestly significant difference (HSD) testing were used to determine statistically significant differences in the distributions between treated and untreated cells. In addition, FM-464 uptake assays were used to observe endocytosis. Three 1-ml aliquots of S. pombe (OD600 of 0.6 to 0.8) were treated with 1 μl DMSO, 0.5 μg/ml (0.5× MIC), or 1 μg/ml (1× MIC) of native occidiofungin for 30 min at 30°C. The cells were washed thrice with PBS and resuspended in YPD medium containing […] FM-464 (Thermo Fisher Scientific). The cells were incubated for 60 min at 30°C, followed by two washes in PBS before visualizing on an Olympus FV1000 confocal microscope with a 40×/0.9 dry objective. Lastly, actin polymerization and depolymerization assays were performed using the Actin polymerization biochem kit (catalog number BK003; Cytoskeleton, Inc.) according to the manufacturer’s instructions.

[4] = tested on: S. cerevisiae (BY4743, diploid); assay: DNA (nuclear) segregation assay, DAPI; type: cell-based; settings: for percentage of cells in category, column 2 / percentage of cells in category, column 4 / percentage of cells in category, column 3 / percentage of cells in category, column 1: 0.5X MIC, 30 °C, two experiments; for percentage of cells in category, column 2: untreated 3.9 ± 1.2; for percentage of cells in category, column 4: untreated 1.4 ± 0.5; for percentage of cells in category, column 3: untreated 13.7 ± 2.5; for percentage of cells in category, column 1: untreated 80.4 ± 2.6
Experimental: as §2

[5] = tested on: Trichophyton mentagrophytes 10207; assay: MIC susceptibility testing (itraconazole-resistant strain); type: cell-based; settings: CLSI M38-A2; 96 hours
Experimental: as §1

[6] = 0.5X MIC, 0.5 h, 30 °C, two experiments
[7] = 0.5X MIC, 1 h, 30 °C, two experiments, * p < 0.05
[8] = subinhibitory concentration, within 30 min

## occidiofungin
[1]; 24 hours
  MIC, 50% inhibition: 2 µg/mL
  MIC, 100% inhibition: 4 µg/mL
[1]; 48 hours
  MIC, 50% inhibition: -
  MIC, 100% inhibition: 4 µg/mL
[2]
  MIC, 50% inhibition: -
  MIC, 100% inhibition: 2 µg/mL
F-actin
  effect on polymerization or depolymerization of F-actin: no effect on the polymerization or depolymerization properties of F-actin
[3]
  competition with alkyne-OF localization: the observed cellular localization patterns disappeared; also recorded: does not bind
C. albicans (ATCC 66027)
  percentage of cells in category, column 1: 58.1 ± 6.6%
C. albicans (ATCC 66027); 0.5X MIC, 0.5 h, 30 °C, two experiments, * p < 0.05
  percentage of cells in category, column 2: 1 ± 0.7%
C. albicans (ATCC 66027); [6]
  percentage of cells in category, column 4: 5.6 ± 0.4%
  percentage of cells in category, column 3: 35.3 ± 6.8%
C. albicans (ATCC 66027); [7]
  percentage of cells in category, column 4: 8.1 ± 2.8%
  percentage of cells in category, column 2: 0.9 ± 0.1%
C. albicans (ATCC 66027); 0.5X MIC, 1 h, 30 °C, two experiments
  percentage of cells in category, column 3: 28.1 ± 1.3%
C. albicans (ATCC 66027); 0.5X MIC, 1 h, 30 °C, two experiments, untreated 62.1 ± 8.8
  percentage of cells in category, column 1: 62.9 ± 4.2%
C. albicans (ATCC 66027); 0.5X MIC, 2 h, 30 °C, two experiments, * p < 0.05
  percentage of cells in category, column 2: 0.4 ± 0.6%
C. albicans (ATCC 66027); 0.5X MIC, 2 h, 30 °C, two experiments, ** p < 0.01
  percentage of cells in category, column 4: 11.4 ± 3.8%
C. albicans (ATCC 66027); 0.5X MIC, 2 h, 30 °C, two experiments
  percentage of cells in category, column 3: 26.3 ±12.1%
C. albicans (ATCC 66027); 0.5X MIC, 2 h, 30 °C, two experiments, untreated 62.1 ± 8.8
  percentage of cells in category, column 1: 61.9 ± 7.7%
C. albicans (ATCC 66027); [8]
  binucleated cells: more binucleated cells
[4]
  percentage of cells in category (bud morphology and DNA localization), column 1: 66.9 ± 6.8%
[4]; 0.5 h, * p < 0.05
  percentage of cells in category, column 2: 0.2 ± 0.3%
[4]; 0.5 h, ** p < 0.01
  percentage of cells in category, column 4: 12.3 ± 0.6%
[4]; 0.5 h
  percentage of cells in category, column 3: 20.5 ± 6.5%
[4]; 1 h, * p < 0.05
  percentage of cells in category, column 2: 0.4 ± 0.1%
  percentage of cells in category, column 3: 25.4 ± 4.7%
[4]; 1 h, ** p < 0.01
  percentage of cells in category, column 4: 15.1 ± 2.9%
  percentage of cells in category, column 1: 59.1 ± 7.7%
[4]; 2 h, * p < 0.05
  percentage of cells in category, column 2: 0.6 ± 0.8%
  percentage of cells in category, column 1: 63.5 ± 2.2%
[4]; 2 h, ** p < 0.01
  percentage of cells in category, column 4: 13.3 ± 0.7%
[4]; 2 h
  percentage of cells in category, column 3: 22.7 ± 2.3%
[4]; [8]
  binucleated cells: more binucleated cells
[5]
  MIC, 80% inhibition: 1 µg/mL
  MIC, 100% inhibition: 2 µg/mL
